Results from patent publication US7879884B2, “Aryl pyridyl sulfonamide derivatives, their manufacture and use as pharmaceutical agents” (Hoffmann-La Roche Inc., priority 2007, dated 2011).

Test system: HCT 116 cells
Test: CellTiter-Glo Luminescent Cell Viability Assay in HCT 116 cells
Type: cell-based
Conditions: HCT 116 human colon carcinoma cells, 5 days (120 h) incubation, CellTiter-Glo luminescence, triplicate
Text: CellTiter-Glo™ Assay in HCT 116 Cells
The CellTiter-Glo™ Luminescent Cell Viability Assay (Promega) is a homogeneous method of determining the number of viable cells in culture based on quantitation of the ATP present, which signals the presence of metabolically active cells.
HCT 116 cells (human colon carcinoma, ATCC-No. CCI-247) were cultivated in RPMI 1640 medium with GlutaMAX™ I (Invitrogen, Cat-No. 61870-010), 5% Fetal Calf Serum (FCS, Sigma Cat-No. F4135 (FBS)); 100 Units/ml penicillin/[…] streptomycin (=Pen/Strep from Invitrogen Cat. No. 15140).
For the assay the cells were seeded in 384 well plates, 1000 cells per well, in the same medium. The next day the test compounds were added in various concentrations ranging from 30 μM to 0.0015 μM (10 concentrations, 1:3 diluted). After 5 days the CellTiter-Glo™ assay was done according to the instructions of the manufacturer (CellTiter-Glo™ Luminescent Cell Viability Assay, from Promega). In brief: the cell-plate was equilibrated to room temperature for approximately 30 minutes and than the CellTiter-Glo™ reagent was added. The contents were carefully mixed for 15 minutes to induce cell lysis. After 45 minutes the luminescent signal was measured in Victor 2, (scanning multiwell spectrophotometer, Wallac).
• Medium: RPMI 1640 with GlutaMAX™ I (Invitrogen, Cat-Nr. 61870), 5% FCS (Sigma Cat.-No. F4135), Pen/Strep (Invitrogen, Cat No. 15140). • HCT116 (ATCC-No. CCI-247): 1000 cells in 60 μl per well of 384 well plate (Greiner 781098, μClear-plate white) • After seeding incubate plates 24 h at 37° C., 5% CO2 2nd. day: Induction (Treatment with Compounds, 10 Concentrations):
In order to achieve a final concentration of 30 μM as highest concentration 3.5 μl of 10 mM compound stock solution were added directly to 163 μl media. Then step e) of the dilution procedure described below, was followed.

SMILES | IC50
COc1cccc(OC)c1-c1ccc(S(=O)(=O)NC(=O)c2ccc(Cl)cc2Cl)cn1 [Example 1-1, 6-(2,6-Dimethoxy-phenyl)-pyridine-3-sulfonic acid 2,4-dichloro-benzoylamide] | 1430 nM
COc1cccc(OC)c1-c1ccc(S(=O)(=O)NC(=O)c2ccc(F)cc2Cl)cn1 [Example 1-2, 6-(2,6-Dimethoxy-phenyl)-pyridine-3-sulfonic acid 2-chloro-4-fluoro-benzoylamide] | 500 to 7500 nM
COc1cccc(OC)c1-c1ccc(S(=O)(=O)NC(=O)c2ccc(F)cc2C(F)(F)F)cn1 [Example 1-3, 6-(2,6-Dimethoxy-phenyl)-pyridine-3-sulfonic acid 4-fluoro-2-trifluoromethyl-benzoylamide] | 500 to 7500 nM
COc1cc(Cl)ccc1C(=O)NS(=O)(=O)c1ccc(-c2c(OC)cccc2OC)nc1 [Example 1-4, 6-(2,6-Dimethoxy-phenyl)-pyridine-3-sulfonic acid 4-chloro-2-methoxy-benzoylamide] | 500 to 7500 nM
COc1cc(Cl)ccc1C(=O)NS(=O)(=O)c1ccc(-c2c(C)cc(C)cc2C)nc1 [Example 1-5, 6-(2,4,6-Trimethyl-phenyl)-pyridine-3-sulfonic acid 4-chloro-2-methoxy-benzoylamide] | 500 to 7500 nM
COc1cc(Cl)ccc1C(=O)NS(=O)(=O)c1ccc(-c2c(C)cccc2C)nc1 [Example 1-6, 6-(2,6-Dimethyl-phenyl)-pyridine-3-sulfonic acid 4-chloro-2-methoxy-benzoylamide] | 500 to 7500 nM
CSc1ccccc1-c1ccc(S(=O)(=O)NC(=O)c2ccc(Cl)cc2Cl)cn1 [Example 1-7, 6-(2-Methylsulfanyl-phenyl)-pyridine-3-sulfonic acid 2,4-dichloro-benzoylamide] | 500 to 7500 nM
CS(=O)(=O)c1ccccc1-c1ccc(S(=O)(=O)NC(=O)c2ccc(Cl)cc2Cl)cn1 [Example 1-8, 6-(2-Methanesulfonyl-phenyl)-pyridine-3-sulfonic acid 2,4-dichloro-benzoylamide] | 2940 nM
O=C(NS(=O)(=O)c1ccc(-c2ccc(C(F)(F)F)cc2C(F)(F)F)nc1)c1ccc(Cl)cc1Cl [Example 1-9, 6-(2,4-Bis-trifluoromethyl-phenyl)-pyridine-3-sulfonic acid 2,4-dichloro-benzoylamide] | 500 to 7500 nM
COc1cccc(F)c1-c1ccc(S(=O)(=O)NC(=O)c2ccc(Cl)cc2Cl)cn1 [Example 1-10, 6-(2-Fluoro-6-methoxy-phenyl)-pyridine-3-sulfonic acid 2,4-dichloro-benzoylamide] | 500 to 7500 nM
COc1cc(Cl)ccc1C(=O)NS(=O)(=O)c1ccc(-c2ccccc2NS(C)(=O)=O)nc1 [Example 1-11, 6-(2-Methanesulfonylamino-phenyl)-pyridine-3-sulfonic acid 4-chloro-2-methoxy-benzoylamide] | 500 to 7500 nM
COc1ccccc1-c1ncc(S(=O)(=O)NC(=O)c2ccc(Cl)cc2Cl)cc1C [Example 1-12, 6-(2-Methoxy-phenyl)-5-methyl-pyridine-3-sulfonic acid 2,4-dichloro-benzoylamide] | 3980 nM
COc1ccccc1-c1ncc(S(=O)(=O)NC(=O)c2ccc(F)cc2C(F)(F)F)cc1C [Example 1-13, 6-(2-Methoxy-phenyl)-5-methyl-pyridine-3-sulfonic acid 4-fluoro-2-trifluoromethyl-benzoylamide] | 500 to 7500 nM
Cc1cc(S(=O)(=O)NC(=O)c2ccc(F)cc2C(F)(F)F)cnc1-c1ccccc1Cl [Example 1-14, 6-(2-Chloro-phenyl)-5-methyl-pyridine-3-sulfonic acid 4-fluoro-2-trifluoromethyl-benzoylamide] | 500 to 7500 nM
Cc1cc(S(=O)(=O)NC(=O)c2ccc(F)cc2Cl)cnc1-c1ccccc1Cl [Example 1-15, 6-(2-Chloro-phenyl)-5-methyl-pyridine-3-sulfonic acid 2-chloro-4-fluoro-benzoylamide] | 500 to 7500 nM
COc1cc(Cl)ccc1C(=O)NS(=O)(=O)c1cnc(-c2ccccc2Cl)c(C)c1 [Example 1-16, 6-(2-Chloro-phenyl)-5-methyl-pyridine-3-sulfonic acid 4-chloro-2-methoxy-benzoylamide] | 500 to 7500 nM
